Reference: doi:10.64898/2026.08.16.745104v1, “C. elegans Dicer stacks with the RIG-I-like receptor DRH-1 to cleave dsRNA” (biorxiv, 2026)

Legend:
[1] = target: T1, DCR-1 in the antiviral complex (AVC; DCR-1•DRH-1•RDE-4) (Caenorhabditis elegans, UniProt P34529); assay: cryo-EM structure, […] Å; format: binding; conditions: helicase nucleotide pocket between Hel1 and Hel2; Mg2+; sample incubated with 5 mM ATP and 3'ovr 106-dsRNA, pH 7.5, 20 °C
T1 construct: three proteins co-expressed in Sf9 cells (baculovirus), StrepTrap and Superose 6 purified; ADP in DCR-1 helicase domain (Hel1/Hel2); with Dicer Related Helicase
T1 sequence (P34529 whole entry, the tested form may be a part): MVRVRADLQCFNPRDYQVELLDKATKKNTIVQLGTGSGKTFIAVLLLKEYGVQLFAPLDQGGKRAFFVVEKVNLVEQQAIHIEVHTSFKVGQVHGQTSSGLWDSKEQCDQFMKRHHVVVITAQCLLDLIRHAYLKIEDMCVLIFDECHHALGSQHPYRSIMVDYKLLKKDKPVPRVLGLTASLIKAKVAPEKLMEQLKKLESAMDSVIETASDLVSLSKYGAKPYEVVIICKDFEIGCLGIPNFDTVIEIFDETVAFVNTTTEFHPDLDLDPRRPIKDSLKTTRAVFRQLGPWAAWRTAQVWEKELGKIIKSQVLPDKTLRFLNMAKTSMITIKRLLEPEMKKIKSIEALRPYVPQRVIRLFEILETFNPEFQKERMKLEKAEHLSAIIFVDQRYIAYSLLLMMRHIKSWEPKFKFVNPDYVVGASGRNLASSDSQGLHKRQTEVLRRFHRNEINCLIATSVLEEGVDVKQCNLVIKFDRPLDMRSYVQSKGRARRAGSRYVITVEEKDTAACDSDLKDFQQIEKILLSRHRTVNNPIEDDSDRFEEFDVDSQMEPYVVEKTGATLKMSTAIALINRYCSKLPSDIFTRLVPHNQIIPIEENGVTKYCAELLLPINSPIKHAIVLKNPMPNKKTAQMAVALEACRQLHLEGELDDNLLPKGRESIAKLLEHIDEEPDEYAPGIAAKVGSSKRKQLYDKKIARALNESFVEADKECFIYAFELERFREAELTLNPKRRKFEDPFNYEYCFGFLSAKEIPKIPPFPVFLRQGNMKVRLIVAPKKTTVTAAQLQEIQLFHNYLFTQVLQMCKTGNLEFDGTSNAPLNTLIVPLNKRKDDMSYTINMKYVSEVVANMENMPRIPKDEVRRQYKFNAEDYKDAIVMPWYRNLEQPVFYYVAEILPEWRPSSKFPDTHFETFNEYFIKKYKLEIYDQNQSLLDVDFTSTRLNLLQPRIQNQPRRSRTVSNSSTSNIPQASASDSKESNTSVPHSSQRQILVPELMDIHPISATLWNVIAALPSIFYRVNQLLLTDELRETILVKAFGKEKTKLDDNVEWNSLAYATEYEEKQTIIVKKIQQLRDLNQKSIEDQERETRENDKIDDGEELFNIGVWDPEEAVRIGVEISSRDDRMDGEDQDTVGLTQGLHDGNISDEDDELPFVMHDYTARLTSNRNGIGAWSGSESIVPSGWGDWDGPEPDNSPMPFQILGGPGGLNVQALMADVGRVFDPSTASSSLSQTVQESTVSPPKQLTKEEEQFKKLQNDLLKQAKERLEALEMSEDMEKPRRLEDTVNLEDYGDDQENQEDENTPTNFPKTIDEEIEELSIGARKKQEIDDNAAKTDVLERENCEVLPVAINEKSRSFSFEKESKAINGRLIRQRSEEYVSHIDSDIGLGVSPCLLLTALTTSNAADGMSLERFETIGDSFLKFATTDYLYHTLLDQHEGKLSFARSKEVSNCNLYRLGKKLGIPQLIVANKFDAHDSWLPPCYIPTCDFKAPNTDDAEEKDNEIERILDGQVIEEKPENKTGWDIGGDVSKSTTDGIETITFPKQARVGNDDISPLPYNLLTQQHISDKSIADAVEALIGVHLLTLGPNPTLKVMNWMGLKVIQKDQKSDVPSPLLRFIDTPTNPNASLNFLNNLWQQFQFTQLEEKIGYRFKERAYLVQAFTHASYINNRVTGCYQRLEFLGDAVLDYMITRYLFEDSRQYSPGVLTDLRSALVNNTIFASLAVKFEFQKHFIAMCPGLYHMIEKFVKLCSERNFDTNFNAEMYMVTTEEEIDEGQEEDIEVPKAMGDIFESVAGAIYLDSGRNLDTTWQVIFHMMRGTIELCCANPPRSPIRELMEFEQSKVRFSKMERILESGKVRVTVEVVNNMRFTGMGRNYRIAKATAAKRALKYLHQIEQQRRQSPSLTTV
T1 sequence (G5EDI8 1-1037 partner): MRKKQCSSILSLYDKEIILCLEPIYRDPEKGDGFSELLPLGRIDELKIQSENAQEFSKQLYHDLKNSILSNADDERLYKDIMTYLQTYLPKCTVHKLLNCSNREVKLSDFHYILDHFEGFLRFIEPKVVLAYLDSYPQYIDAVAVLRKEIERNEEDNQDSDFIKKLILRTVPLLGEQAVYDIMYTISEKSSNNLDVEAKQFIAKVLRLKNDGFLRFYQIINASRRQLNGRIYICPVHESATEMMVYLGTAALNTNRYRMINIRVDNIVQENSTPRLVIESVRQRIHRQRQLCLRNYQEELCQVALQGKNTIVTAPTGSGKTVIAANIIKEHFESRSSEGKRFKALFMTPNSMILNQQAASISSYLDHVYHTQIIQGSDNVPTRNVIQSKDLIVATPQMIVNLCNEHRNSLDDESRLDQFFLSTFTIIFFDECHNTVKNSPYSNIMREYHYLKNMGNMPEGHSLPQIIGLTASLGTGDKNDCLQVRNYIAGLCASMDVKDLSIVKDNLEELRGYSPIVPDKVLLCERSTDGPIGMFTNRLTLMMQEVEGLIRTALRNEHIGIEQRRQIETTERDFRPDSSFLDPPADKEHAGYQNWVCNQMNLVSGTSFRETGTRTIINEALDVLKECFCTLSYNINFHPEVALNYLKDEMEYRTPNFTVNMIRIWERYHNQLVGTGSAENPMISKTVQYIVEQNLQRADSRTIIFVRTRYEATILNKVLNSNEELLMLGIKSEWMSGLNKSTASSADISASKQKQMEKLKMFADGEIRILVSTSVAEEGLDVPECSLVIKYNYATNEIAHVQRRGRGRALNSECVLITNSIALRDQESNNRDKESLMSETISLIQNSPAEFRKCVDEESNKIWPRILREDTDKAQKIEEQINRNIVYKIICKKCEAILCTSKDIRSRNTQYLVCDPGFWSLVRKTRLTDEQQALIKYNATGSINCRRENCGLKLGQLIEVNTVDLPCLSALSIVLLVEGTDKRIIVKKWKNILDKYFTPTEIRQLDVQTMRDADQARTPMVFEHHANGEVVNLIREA
T1 sequence (G5EBF5 1-385 partner): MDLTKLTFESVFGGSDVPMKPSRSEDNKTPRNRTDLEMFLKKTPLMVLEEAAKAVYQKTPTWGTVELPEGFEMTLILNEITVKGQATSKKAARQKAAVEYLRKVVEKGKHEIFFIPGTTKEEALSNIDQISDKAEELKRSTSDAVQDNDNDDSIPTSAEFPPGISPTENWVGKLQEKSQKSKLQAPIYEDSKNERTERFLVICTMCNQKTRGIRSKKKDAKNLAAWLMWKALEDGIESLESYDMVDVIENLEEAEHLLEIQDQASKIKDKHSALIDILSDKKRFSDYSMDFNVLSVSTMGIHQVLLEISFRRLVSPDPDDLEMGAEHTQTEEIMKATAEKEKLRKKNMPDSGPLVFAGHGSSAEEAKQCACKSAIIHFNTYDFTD

[2] = target: T2, DRH-1 in the antiviral complex (AVC; DCR-1•DRH-1•RDE-4) (Caenorhabditis elegans, UniProt G5EDI8); assay: cryo-EM structure, […] Å; conditions: ATP-binding pockets of both DRH-1 helicases (DRH-1 and DRH-1*); sample incubated with 5 mM ATP and 3'ovr 106-dsRNA, pH 7.5, 20 °C
T2 construct: three proteins co-expressed in Sf9 cells (baculovirus), StrepTrap and Superose 6 purified; two stacked DRH-1 helicases (DRH-1 and DRH-1*, the latter only helicase and CTD resolved); with Endoribonuclease dcr-1
T2 sequence (G5EDI8 1-1037): as the sequence (G5EDI8 1-1037 partner) above
T2 sequence (P34529 whole entry partner): as the sequence (P34529 whole entry, the tested form may be a part) above
T2 sequence (G5EBF5 1-385 partner): as the sequence (G5EBF5 1-385 partner) above

For `Nc1ncnc2c1ncn2[C@@H]1O[C@H](COP(=O)(O)OP(=O)(O)O)[C@@H](O)[C@H]1O` [ADP], the “cryo-EM structure, 3.0 Å” value [1] was “we modeled ADP within the conserved nucleotide-binding pocket of the DCR-1 helicase” and the “cryo-EM structure, 3.0 Å” value [2] was “ADP was also present in the ATP-binding pockets of both DRH-1 helicases”.
